{"source": "patent US20090048214A1", "about": "“Methods for Treating Renal Tumors Using 2, 4-Pyrimidinediamine Drug and Prodrug Compounds” (RIGEL PHARMACEUTICALS, INC, priority 2006, published 2009)", "key": {"[1]": {"conditions": "detailed in US2006/0211657 A1; cited from earlier work"}, "[2]": {"system": "RXF-393 kidney tumor fragments", "assay": "RXF-393 renal carcinoma orthotopic xenograft study", "type": "in vivo, Nu/nu mice", "conditions": "for median tumor weight: following 16 days of treatment, vehicle 485 mg", "experimental": "RXF-393 kidney tumor fragments were implanted intrarenally into Nu/nu mice. On days 5-20 post-implantation animals were fed the Research Diet chow containing Compound A at the following dose levels: 0 g/kg (control), 0.5 g/kg (expected dose 75 mg/kg/day), 2.0 g/kg (expected dose 300 mg/kg/day), or 3.0 g/kg (expected dose 450 mg/kg/day). Tumors were allowed to grow orthotopically, body weights were measured twice weekly, and the animals were sacrificed on Day 23. Both the implanted kidney and the unimplanted kidney were weighed, and the tumor weight is expressed as the difference in kidney weights for each animal."}, "[3]": {"system": "A498 renal carcinoma cells", "assay": "A498 renal carcinoma subcutaneous xenograft study", "type": "in vivo, NCR nu/nu female mice", "experimental": "NCR nu/nu female mice (8-9 weeks old, Harlan Laboratories, Madison, Wis.) were injected subcutaneously on the right hind flank with 5×10^7 A498 renal carcinoma cells in a 50:50 mixture of cells in PBS and Matrigel® (Cat# 356234, LDEV negative, BD Biosciences, Boston, Mass.). Tumor growth was determined by measuring the tumor in two dimensions (L×W) with electronic calipers (Ultra Cal IV, Fred V Fowler Co, Newton, Mass.). Volume was calculated using Study Director Animal Study Management Software (Studylog Systems, South San Francisco, Calif.) as follows: V=(L×W^2)/2,where L and W are the tumor length and width, respectively. Animals were randomized by stratified tumor size and treatment was initiated when the average tumor size was approximately 82 mm^3 (Study Day 0, 17 days post-injection). Test compound was administered ad libitum in the feed as a formulation of 0, 0.5, 2, or 3 g Compound A per kg of AIN-76A rodent diet (Research Diets, Inc, New Brunswick, N.J.). Animals were weighed and tumors measured twice weekly from the day of cell injection to study termination."}}}
{"smiles": "COc1cc(Nc2ncc(F)c(Nc3ccc4c(n3)N(COP(=O)(O)O)C(=O)C(C)(C)O4)n2)cc(OC)c1OC", "note": "[Compound A]", "values": [{"measurement": "metabolism of prodrug in vivo", "setting": "[1]", "result": "metabolize in vivo to the corresponding active 2,4-pyrimidinediamine compound, Compound 1"}, {"measurement": "reduction in tumor weight vs vehicle", "setting": "[2]; high (3 g/kg) and mid (2 g/kg) dose groups, 16 days of treatment", "result": "~10", "unit": "fold"}, {"measurement": "median tumor weight", "setting": "[2]; high dose 3 g/kg food (450 mg/kg/dose), p<0.0001", "result": 63, "unit": "mg"}, {"measurement": "reduction in median tumor weight compared with vehicle", "setting": "[2]; low dose group (75 mg/kg/dose, 0.5 g Compound A/kg food)", "result": "approximately 25%"}, {"measurement": "median tumor weight", "setting": "[2]; mid dose 2 g/kg food (300 mg/kg/dose), p<0.0006", "result": 74, "unit": "mg"}, {"measurement": "Mean body weights", "setting": "[3]; 0, 0.5, 2.0, 3.0 g Compound A/kg feed groups", "result": "not different among the groups"}, {"measurement": "effect on tumor growth, dose dependence", "setting": "[3]; 0.5, 2.0, 3.0 g Compound A/kg feed", "result": "dose-dependent effect on tumor growth was observed"}, {"measurement": "%T/C", "setting": "[3]; 2.0 g Compound A/kg feed, Day 23", "result": 62, "unit": "%"}, {"measurement": "mean tumor volume", "setting": "[3]; 2.0 g Compound A/kg feed, by Day 23, control 665, p>0.05", "result": 485, "unit": "mm^3"}, {"measurement": "mean tumor volume", "setting": "[3]; 3.0 g Compound A/kg feed ad libitum, after 24 days of treatment, vehicle 665, p<0.05", "result": 372, "unit": "mm^3"}, {"measurement": "median change in tumor volume, treated relative to control (% T/C)", "setting": "[3]; 3.0 g Compound A/kg feed, after 24 days of treatment", "result": 35, "unit": "%"}]}
